Test results: patent US8574563B2 (Bristol-Myers Squibb Company, priority 2006, dated 2013)

The molecules below were run on HCV 1b-377-neo replicon cells (assay: HCV replicon assay, HCV 1b-377-neo replicon cells (1b FRET)). Details: HCV 1b-377-neo replicon cells; HCV 1b genotype; read-out: EC50 range against HCV 1b (Table 2, Range).
Type: cell-based, Hepatitis C virus genotype 1b
Method in brief: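 FRET-based replicon assay in HCV 1b-377-neo cells, including a comparison line carrying the NS5A Y2065H mutation that confers resistance to a reference compound.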

Compound | EC50 [nM]
COC(=O)N[C@H](C(=O)N1CCC[C@H]1c1ncc(-c2ccc(-c3ccc(-c4cnc([C@@H]5CCCN5C(=O)CC(C)C)[nH]4)cc3)cc2)[nH]1)C(C)C [Example M81, methyl ((1S)-2-methyl-1-(((2S)-2-(5-(4′-(2-((2S)-1-(3-methylbutanoyl)-2-pyrrolidinyl)-1H-imidazol-5-yl)-4-biphenylyl)-1H-imidazol-2-yl)-1-pyrrolidinyl)carbonyl)propyl) carbamate] | 100 to 999

Same assay, conditions: Hepatitis C virus, HCV 1b-377-neo replicon cells; HCV 1b genotype; read-out: EC50 range against HCV 1b (Table 2, Range)

Compound | EC50 [nM]
COC(=O)N[C@@H](C(=O)N1CCC[C@H]1c1ncc(-c2ccc(-c3ccc(-c4cnc([C@@H]5CCCN5C(=O)Cc5ccc(OC)cc5)[nH]4)cc3)cc2)[nH]1)c1ccccc1 [Example 84-63, methyl ((1R)-2-((2S)-2-(5-(4′-(2-((2S)-1-((4-methoxyphenyl)acetyl)-2-pyrrolidinyl)-1H-imidazol-5-yl)-4-biphenylyl)-1H-imidazol-2-yl)-1-pyrrolidinyl)-2-oxo-1-phenylethyl)carbamate] | 0.001 to 0.999
CCN(CC)[C@@H](C(=O)N1CCC[C@H]1c1ncc(-c2ccc(-c3ccc(-c4cnc([C@@H]5CCCN5C(=O)[C@H](Nc5ncccn5)C(C)C)[nH]4)cc3)cc2)[nH]1)c1ccccc1 [cj-11k, N-((1R)-1-(((2S)-2-(5-(4′-(2-((2S)-1-((2R)-2-(diethylamino)-2-phenylacetyl)-2-pyrrolidinyl)-1H-imidazol-5-yl)-4-biphenylyl)-1H-imidazol-2-yl)-1-pyrrolidinyl)carbonyl)-2-methylpropyl)-2-pyrimidinamine] | 0.001 to 0.999
CN(C)[C@@H](C(=O)N1CCC[C@H]1c1ncc(-c2ccc(-c3ccc(-c4cnc([C@@H]5CCCN5C(=O)[C@@H](c5ccccc5Cl)N(C)C)[nH]4)cc3)cc2)[nH]1)c1ccccc1 [Example 107-35, (1R)-1-(2-chloro-phenyl)-2-((2S)-2-(5-(4′-(2-((2S)-1-((2R)-2-(dimethylamino)-2-phenylacetyl)-2-pyrrolidinyl)-1H-imidazol-5-yl)-4-biphenylyl)-1H-imidazol-2-yl)-1-pyrrolidinyl)-N,N-dimethyl-2-oxoethanamine] | 0.001 to 0.999
COC(=O)N[C@@H](C(=O)N1CCC[C@H]1c1ncc(-c2ccc(-c3ccc(-c4cnc([C@@H]5CCCN5C(=O)[C@H](C)N(C)C)[nH]4)cc3)cc2)[nH]1)c1ccccc1 [Example 76, methyl ((1R)-2-((2S)-2-(5-(4′-(2-((2S)-1-(N,N-dimethyl-L-alanyl)-2-pyrrolidinyl)-1H-imidazol-5-yl)-4-biphenylyl)-1H-imidazol-2-yl)-1-pyrrolidinyl)-2-oxo-1-phenylethyl)carbamate] | 0.001 to 0.999
C=CC[C@H](NC(=O)OC)C(=O)N1CCC[C@H]1c1ncc(-c2ccc(-c3ccc(-c4cnc([C@@H]5CCCN5C(=O)[C@@H](NC(=O)OC)C(C)C)[nH]4)cc3)cc2)[nH]1 [Example M76, methyl ((1S)-1-(((2S)-2-(5-(4′-(2-((2S)-1-((2S)-2-((methoxycarbonyl)amino)-3-methylbutanoyl)-2-pyrrolidinyl)-1H-imidazol-5-yl)-4-biphenylyl)-1H-imidazol-2-yl)-1-pyrrolidinyl)carbonyl)-3-buten-1-yl)carbamate] | 1 to 99
C[C@H](NC(=O)[C@@H](c1ccccc1)N(C)C)c1ncc(-c2ccc(-c3ccc(-c4cnc([C@H](C)NC(=O)[C@@H](c5ccccc5)N(C)C)[nH]4)cn3)cc2)[nH]1 [Example 152j-24, (2R)-2-(dimethylamino)-N-((1S)-1-(5-(6-(4-(2-((1S)-1-(((2R)-2-(dimethylamino)-2-phenylacetyl)amino)ethyl)-1H-imidazol-5-yl)phenyl)-3-pyridinyl)-1H-imidazol-2-yl)ethyl)-2-phenylacetamide] | 0.001 to 0.999
COC(=O)N[C@@H](C(=O)N1CCC[C@H]1c1ncc(-c2ccc(-c3ccc(-c4cnc([C@@H]5CCCN5C(=O)Cc5cccnc5)[nH]4)cc3)cc2)[nH]1)c1ccccc1 [Example 47, methyl ((1R)-2-oxo-1-phenyl-2-((2S)-2-(5-(4′-(2-((2S)-1-(3-pyridinylacetyl)-2-pyrrolidinyl)-1H-imidazol-5-yl)-4-biphenylyl)-1H-imidazol-2-yl)-1-pyrrolidinyl)ethyl)carbamate] | 0.001 to 0.999
O=C([C@H](O)c1ccccc1)N1C[C@@H](O)C[C@H]1c1ncc(-c2ccc(-c3ccc(-c4cnc([C@@H]5C[C@H](O)CN5C(=O)[C@H](O)c5ccccc5)[nH]4)cc3)cc2)[nH]1 [Example 24-18, (3S,5S,3′S,5′S)-5,5′-(4,4′-biphenyldiylbis(1H-imidazole-5,2-diyl))bis(1-((2R)-2-hydroxy-2-phenylacetyl)-3-pyrrolidinol)] | 0.001 to 0.999
COCC(=O)N1CCC[C@H]1c1ncc(-c2ccc(-c3ccc(-c4cnc([C@@H]5CCCN5C(=O)[C@H](NC(=O)OC)c5ccccc5)[nH]4)cc3)cc2)[nH]1 [Example 55, methyl ((1R)-2-((2S)-2-(5-(4′-(2-((2S)-1-(methoxyacetyl)-2-pyrrolidinyl)-1H-imidazol-5-yl)-4-biphenylyl)-1H-imidazol-2-yl)-1-pyrrolidinyl)-2-oxo-1-phenylethyl)carbamate] | 0.001 to 0.999
COC(=O)N[C@@H](C(=O)N1CCC[C@H]1c1ncc(-c2ccc(-c3ccc(-c4cnc([C@@H]5CCCN5C(=O)Cc5cn(C)cn5)[nH]4)cc3)cc2)[nH]1)c1ccccc1 [Example 62, methyl ((1R)-2-((2S)-2-(5-(4′-(2-((2S)-1-((1-methyl-1H-imidazol-4-yl)acetyl)-2-pyrrolidinyl)-1H-imidazol-5-yl)-4-biphenylyl)-1H-imidazol-2-yl)-1-pyrrolidinyl)-2-oxo-1-phenylethyl)carbamate] | 0.001 to 0.999
COC(=O)N[C@@H](C(=O)N1CCC[C@H]1c1ncc(-c2ccc(-c3ccc(-c4cnc([C@@H]5CCCN5C(=O)c5ccc(N(C)C)cc5)[nH]4)cc3)cc2)[nH]1)c1ccccc1 [Example 84-33, methyl ((1R)-2-((2S)-2-(5-(4′-(2-((2S)-1-(4-(dimethylamino)benzoyl)-2-pyrrolidinyl)-1H-imidazol-5-yl)-4-biphenylyl)-1H-imidazol-2-yl)-1-pyrrolidinyl)-2-oxo-1-phenylethyl)carbamate] | 0.001 to 0.999
COC(=O)N[C@@H](C(=O)N1CCC[C@H]1c1ncc(-c2ccc(-c3ccc(-c4cnc([C@@H]5CCCN5C(=O)[C@H]5CCCO5)[nH]4)cc3)cc2)[nH]1)c1ccccc1 [Example 36, methyl ((1R)-2-oxo-1-phenyl-2-((2S)-2-(5-(4′-(2-((2S)-1-((2R)-tetrahydro-2-furanylcarbonyl)-2-pyrrolidinyl)-1H-imidazol-5-yl)-4-biphenylyl)-1H-imidazol-2-yl)-1-pyrrolidinyl)ethyl)carbamate] | 0.001 to 0.999
COC(=O)N[C@@H](C(=O)N1CCC[C@H]1c1ncc(-c2ccc(-c3ccc(-c4cnc([C@@H]5CCCN5C(=O)C(c5cccc6ccccc56)N(C)C)[nH]4)cc3)cc2)[nH]1)c1ccccc1 (stereo partly drawn) [Example 84-51, methyl ((1R)-2-((2S)-2-(5-(4′-(2-((2S)-1-((dimethylamino)(1-naphthyl)acetyl)-2-pyrrolidinyl)-1H-imidazol-5-yl)-4-biphenylyl)-1H-imidazol-2-yl)-1-pyrrolidinyl)-2-oxo-1-phenylethyl)carbamate] | 0.001 to 0.999
